# Source: ChEMBL document CHEMBL4507324 (2021)
# Assays:
# [1] = biological target: Homeodomain-interacting protein kinase 2 (Homo sapiens) (UniProt Q9H2X6); conditions: Compound concentration 100.0 nM
# [2] = biological target: NT-3 growth factor receptor (Homo sapiens) (UniProt Q16288); conditions: Compound concentration 100.0 nM
# [3] = biological target: Receptor tyrosine-protein kinase erbB-3 (Homo sapiens) (UniProt P21860); conditions: Compound concentration 100.0 nM
# [4] = tested on: Tyrosine-protein kinase ABL1 (Homo sapiens), P00519 [M351T]; conditions: Compound concentration 100.0 nM
# [5] = biological target: Serine/threonine-protein kinase 17A (Homo sapiens) (UniProt Q9UEE5); conditions: Compound concentration 100.0 nM
# Chain of Serine/threonine-protein kinase 17A (Homo sapiens) (Q9UEE5 whole entry): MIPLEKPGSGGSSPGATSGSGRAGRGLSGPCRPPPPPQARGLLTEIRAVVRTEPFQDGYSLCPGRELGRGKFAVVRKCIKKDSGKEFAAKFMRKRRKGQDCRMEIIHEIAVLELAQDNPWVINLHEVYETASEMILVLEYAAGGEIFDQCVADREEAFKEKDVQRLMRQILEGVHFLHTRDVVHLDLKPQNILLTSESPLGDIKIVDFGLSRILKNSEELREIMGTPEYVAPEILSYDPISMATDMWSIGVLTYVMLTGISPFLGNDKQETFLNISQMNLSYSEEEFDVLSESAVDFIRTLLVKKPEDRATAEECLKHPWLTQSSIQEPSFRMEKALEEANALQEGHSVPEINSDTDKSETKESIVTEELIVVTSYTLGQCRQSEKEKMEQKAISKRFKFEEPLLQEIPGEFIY
# [6] = biological target: Death-associated protein kinase 1 (Homo sapiens) (UniProt P53355); conditions: Compound concentration 100.0 nM
# Chain of Death-associated protein kinase 1 (Homo sapiens) (P53355 whole entry, looked up): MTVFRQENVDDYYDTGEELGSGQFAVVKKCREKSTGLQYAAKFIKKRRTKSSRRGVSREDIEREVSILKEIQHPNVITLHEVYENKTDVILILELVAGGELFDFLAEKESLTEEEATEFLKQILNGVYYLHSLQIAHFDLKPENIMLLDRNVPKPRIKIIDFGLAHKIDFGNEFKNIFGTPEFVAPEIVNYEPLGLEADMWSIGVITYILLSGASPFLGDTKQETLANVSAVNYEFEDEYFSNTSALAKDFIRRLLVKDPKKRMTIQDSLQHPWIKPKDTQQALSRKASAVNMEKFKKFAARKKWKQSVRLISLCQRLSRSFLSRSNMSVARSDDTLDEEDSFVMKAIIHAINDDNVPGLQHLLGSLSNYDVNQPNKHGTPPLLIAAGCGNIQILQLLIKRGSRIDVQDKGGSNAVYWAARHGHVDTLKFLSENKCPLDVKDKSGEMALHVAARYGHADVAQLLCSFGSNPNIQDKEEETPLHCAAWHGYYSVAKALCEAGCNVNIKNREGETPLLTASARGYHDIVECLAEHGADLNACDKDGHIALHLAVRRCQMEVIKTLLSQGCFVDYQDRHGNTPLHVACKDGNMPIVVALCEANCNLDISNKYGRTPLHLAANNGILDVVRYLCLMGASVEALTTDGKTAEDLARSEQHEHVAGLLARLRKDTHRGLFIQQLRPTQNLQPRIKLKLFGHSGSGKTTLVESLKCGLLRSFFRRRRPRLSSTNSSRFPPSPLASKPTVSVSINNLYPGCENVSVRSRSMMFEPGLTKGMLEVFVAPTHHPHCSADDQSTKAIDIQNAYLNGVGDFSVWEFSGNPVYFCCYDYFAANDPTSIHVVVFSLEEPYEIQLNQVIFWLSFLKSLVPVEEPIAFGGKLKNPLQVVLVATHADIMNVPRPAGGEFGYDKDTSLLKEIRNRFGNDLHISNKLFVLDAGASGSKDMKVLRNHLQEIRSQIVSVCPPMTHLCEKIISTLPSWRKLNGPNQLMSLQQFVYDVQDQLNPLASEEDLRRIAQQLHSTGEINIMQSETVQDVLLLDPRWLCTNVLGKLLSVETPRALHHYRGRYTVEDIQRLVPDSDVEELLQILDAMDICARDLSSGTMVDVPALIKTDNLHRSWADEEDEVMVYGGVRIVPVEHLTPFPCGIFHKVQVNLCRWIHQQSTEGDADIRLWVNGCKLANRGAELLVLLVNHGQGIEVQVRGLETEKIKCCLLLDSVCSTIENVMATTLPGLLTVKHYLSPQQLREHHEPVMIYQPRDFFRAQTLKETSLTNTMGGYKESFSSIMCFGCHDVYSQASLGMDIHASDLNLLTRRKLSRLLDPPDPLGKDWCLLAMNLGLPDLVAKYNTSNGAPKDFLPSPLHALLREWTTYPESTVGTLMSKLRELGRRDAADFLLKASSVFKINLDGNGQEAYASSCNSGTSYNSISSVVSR
# [7] = biological target: Serine/threonine-protein kinase Sgk2 (Homo sapiens) (UniProt Q9HBY8); conditions: Compound concentration 100.0 nM
# Chain of Serine/threonine-protein kinase Sgk2 (Homo sapiens) (Q9HBY8 whole entry): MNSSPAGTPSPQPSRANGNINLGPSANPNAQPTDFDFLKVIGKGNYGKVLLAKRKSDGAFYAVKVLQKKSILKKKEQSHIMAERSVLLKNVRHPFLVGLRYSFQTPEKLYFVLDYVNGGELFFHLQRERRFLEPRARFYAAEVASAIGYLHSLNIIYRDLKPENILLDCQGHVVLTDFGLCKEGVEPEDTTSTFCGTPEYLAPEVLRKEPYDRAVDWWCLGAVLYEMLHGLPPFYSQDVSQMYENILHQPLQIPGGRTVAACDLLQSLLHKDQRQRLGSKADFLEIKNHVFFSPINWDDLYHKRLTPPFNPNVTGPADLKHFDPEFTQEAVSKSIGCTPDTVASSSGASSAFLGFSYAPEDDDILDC
# [8] = biological target: STE20/SPS1-related proline-alanine-rich protein kinase (Homo sapiens) (UniProt Q9UEW8); conditions: Compound concentration 100.0 nM
# [9] = biological target: Serine/threonine-protein kinase TBK1 (Homo sapiens) (UniProt Q9UHD2); conditions: Compound concentration 100.0 nM
# [10] = biological target: Myosin light chain kinase (Homo sapiens) (UniProt Q32MK0); conditions: Compound concentration 100.0 nM
# Chain of Myosin light chain kinase (Homo sapiens) (Q32MK0 whole entry): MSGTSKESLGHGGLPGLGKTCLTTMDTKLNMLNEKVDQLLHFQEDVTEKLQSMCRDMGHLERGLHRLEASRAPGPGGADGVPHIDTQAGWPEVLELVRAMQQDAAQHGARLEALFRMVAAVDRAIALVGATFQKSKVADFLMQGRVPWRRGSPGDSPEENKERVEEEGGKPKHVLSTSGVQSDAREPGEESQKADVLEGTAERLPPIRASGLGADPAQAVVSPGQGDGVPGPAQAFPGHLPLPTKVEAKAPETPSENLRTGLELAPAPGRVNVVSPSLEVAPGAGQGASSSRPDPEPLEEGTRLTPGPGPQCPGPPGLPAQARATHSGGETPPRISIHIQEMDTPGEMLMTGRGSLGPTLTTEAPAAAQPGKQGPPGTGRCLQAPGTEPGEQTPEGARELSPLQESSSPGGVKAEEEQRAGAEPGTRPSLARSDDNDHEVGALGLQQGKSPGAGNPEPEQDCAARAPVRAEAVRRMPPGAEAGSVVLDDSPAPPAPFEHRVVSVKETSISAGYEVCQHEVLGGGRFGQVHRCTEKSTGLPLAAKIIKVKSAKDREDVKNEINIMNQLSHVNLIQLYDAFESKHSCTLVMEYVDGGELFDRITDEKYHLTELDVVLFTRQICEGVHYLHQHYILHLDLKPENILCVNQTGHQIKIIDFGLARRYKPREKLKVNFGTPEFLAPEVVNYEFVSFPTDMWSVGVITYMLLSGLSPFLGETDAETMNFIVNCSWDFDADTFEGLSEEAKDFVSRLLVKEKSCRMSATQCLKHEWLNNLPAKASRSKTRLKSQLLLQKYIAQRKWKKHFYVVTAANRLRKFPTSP
# [11] = biological target: Calcium/calmodulin-dependent protein kinase type II subunit beta (Homo sapiens) (UniProt Q13554); conditions: Compound concentration 100.0 nM
# Chain of Calcium/calmodulin-dependent protein kinase type II subunit beta (Homo sapiens) (Q13554 whole entry): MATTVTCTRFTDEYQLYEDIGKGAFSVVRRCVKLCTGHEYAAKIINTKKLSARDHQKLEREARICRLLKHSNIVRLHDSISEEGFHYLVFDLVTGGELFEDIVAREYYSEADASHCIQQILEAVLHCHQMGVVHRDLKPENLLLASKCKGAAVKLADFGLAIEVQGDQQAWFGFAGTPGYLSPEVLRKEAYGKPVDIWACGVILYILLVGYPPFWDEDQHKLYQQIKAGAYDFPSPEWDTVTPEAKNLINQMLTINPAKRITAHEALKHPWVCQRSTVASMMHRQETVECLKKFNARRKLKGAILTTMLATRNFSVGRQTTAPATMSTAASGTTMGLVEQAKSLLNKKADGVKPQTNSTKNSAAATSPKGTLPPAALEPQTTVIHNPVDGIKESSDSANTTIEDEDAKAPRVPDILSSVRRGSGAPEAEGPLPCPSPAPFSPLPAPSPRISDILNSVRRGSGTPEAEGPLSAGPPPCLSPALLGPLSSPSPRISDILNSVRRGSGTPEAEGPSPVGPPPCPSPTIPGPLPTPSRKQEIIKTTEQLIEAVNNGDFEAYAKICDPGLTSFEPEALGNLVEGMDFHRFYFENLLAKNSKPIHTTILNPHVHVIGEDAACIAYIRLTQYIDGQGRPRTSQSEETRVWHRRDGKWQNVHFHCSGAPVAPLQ
# [12] = biological target: Mitogen-activated protein kinase 8 (Homo sapiens) (UniProt P45983); conditions: Compound concentration 100.0 nM
# [13] = biological target: Protein-tyrosine kinase 6 (Homo sapiens) (UniProt Q13882); conditions: Compound concentration 100.0 nM
# Chain of Protein-tyrosine kinase 6 (Homo sapiens) (Q13882 whole entry, looked up): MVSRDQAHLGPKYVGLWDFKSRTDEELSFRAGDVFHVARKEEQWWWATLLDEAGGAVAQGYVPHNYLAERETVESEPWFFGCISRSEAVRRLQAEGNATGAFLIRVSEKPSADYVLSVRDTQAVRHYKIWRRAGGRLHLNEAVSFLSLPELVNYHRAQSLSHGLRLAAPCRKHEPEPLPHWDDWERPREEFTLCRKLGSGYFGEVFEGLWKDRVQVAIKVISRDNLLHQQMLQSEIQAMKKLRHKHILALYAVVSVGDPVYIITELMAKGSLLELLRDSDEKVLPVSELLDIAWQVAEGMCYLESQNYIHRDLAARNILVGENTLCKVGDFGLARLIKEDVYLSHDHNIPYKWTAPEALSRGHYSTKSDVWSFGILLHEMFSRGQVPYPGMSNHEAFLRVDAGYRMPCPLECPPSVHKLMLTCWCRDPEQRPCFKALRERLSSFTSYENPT
# [14] = biological target: Mitogen-activated protein kinase 11 (Homo sapiens, UniProt Q15759); assay: NanoBRET (SGC-Frankfurt) (MAPK11)
# [15] = biological target: Vascular endothelial growth factor receptor 2 (Homo sapiens) (UniProt P35968); conditions: Compound concentration 100.0 nM
# [16] = biological target: Ribosomal protein S6 kinase alpha-5 (Homo sapiens) (UniProt O75582); conditions: Compound concentration 100.0 nM
# [17] = biological target: Mu-type opioid receptor (Homo sapiens) (UniProt P35372); conditions: Compound concentration 10.0 uM
# [18] = biological target: D(1B) dopamine receptor (Homo sapiens) (UniProt P21918); conditions: Compound concentration 10.0 uM
# [19] = biological target: 5-hydroxytryptamine receptor 1B (Homo sapiens) (UniProt P28222); conditions: Compound concentration 10.0 uM
# [20] = biological target: D(4) dopamine receptor (Homo sapiens) (UniProt P21917); conditions: Compound concentration 10.0 uM
# [21] = biological target: Serine/threonine-protein kinase Chk2 (Homo sapiens, UniProt O96017); assay: NanoBRET (SGC-Frankfurt) (CHEK2)
# [22] = biological target: Muscarinic acetylcholine receptor M4 (Homo sapiens) (UniProt P08173); conditions: Compound concentration 10.0 uM
# [23] = biological target: 5-hydroxytryptamine receptor 6 (Homo sapiens) (UniProt P50406); conditions: Compound concentration 10.0 uM
# [24] = biological target: Alpha-1A adrenergic receptor (Homo sapiens) (UniProt P35348); conditions: Compound concentration 10.0 uM
# [25] = biological target: Sodium-dependent dopamine transporter (Homo sapiens) (UniProt Q01959); conditions: Compound concentration 10.0 uM
# [26] = biological target: Muscarinic acetylcholine receptor M2 (Homo sapiens) (UniProt P08172); conditions: Compound concentration 10.0 uM
# [27] = biological target: Kappa-type opioid receptor (Homo sapiens) (UniProt P41145); conditions: Compound concentration 10.0 uM
# [28] = biological target: Sodium-dependent serotonin transporter (Homo sapiens) (UniProt P31645); conditions: Compound concentration 10.0 uM
# [29] = biological target: Serine/threonine-protein kinase B-raf (Homo sapiens, UniProt P15056); assay: NanoBRET (SGC-Frankfurt) (BRAF)
# [30] = biological target: 5-hydroxytryptamine receptor 1D (Homo sapiens) (UniProt P28221); conditions: Compound concentration 10.0 uM
# [31] = biological target: GABA-A receptor; anion channel (Rattus norvegicus) (UniProt O09028+P15431+P18506+P18508+P19969+P20236+P23574+P23576+P28471+P28473+P30191+P62813+P63079+P63138+Q91ZM7+Q9ES14); conditions: Compound concentration 10.0 uM
# [32] = biological target: Alpha-1D adrenergic receptor (Homo sapiens) (UniProt P25100); conditions: Compound concentration 10.0 uM
# [33] = biological target: Histamine H1 receptor (Homo sapiens) (UniProt P35367); conditions: Compound concentration 10.0 uM
# [34] = biological target: 5-hydroxytryptamine receptor 2B (Homo sapiens) (UniProt P41595); conditions: Compound concentration 10.0 uM
# [35] = biological target: Alpha-2B adrenergic receptor (Homo sapiens) (UniProt P18089); conditions: Compound concentration 10.0 uM
# [36] = biological target: D(1A) dopamine receptor (Homo sapiens) (UniProt P21728); conditions: Compound concentration 10.0 uM
# [37] = biological target: 5-hydroxytryptamine receptor 3A (Homo sapiens) (UniProt P46098); conditions: Compound concentration 10.0 uM
# [38] = biological target: Delta-type opioid receptor (Homo sapiens) (UniProt P41143); conditions: Compound concentration 10.0 uM
# [39] = biological target: Muscarinic acetylcholine receptor M3 (Homo sapiens) (UniProt P20309); conditions: Compound concentration 10.0 uM
# [40] = biological target: 5-hydroxytryptamine receptor 7 (Homo sapiens) (UniProt P34969); conditions: Compound concentration 10.0 uM
# [41] = biological target: Histamine H3 receptor (Homo sapiens) (UniProt Q9Y5N1); conditions: Compound concentration 10.0 uM
# [42] = biological target: Beta-1 adrenergic receptor (Homo sapiens) (UniProt P08588); conditions: Compound concentration 10.0 uM
# [43] = biological target: D(2) dopamine receptor (Homo sapiens) (UniProt P14416); conditions: Compound concentration 10.0 uM
# [44] = biological target: Muscarinic acetylcholine receptor M1 (Homo sapiens) (UniProt P11229); conditions: Compound concentration 10.0 uM
# [45] = biological target: Serine/threonine-protein kinase 38-like (Homo sapiens, UniProt Q9Y2H1); assay: NanoBRET (SGC-Frankfurt) (STK38L)
# Chain of NT-3 growth factor receptor (Homo sapiens) (Q16288 32-839 limits assumed): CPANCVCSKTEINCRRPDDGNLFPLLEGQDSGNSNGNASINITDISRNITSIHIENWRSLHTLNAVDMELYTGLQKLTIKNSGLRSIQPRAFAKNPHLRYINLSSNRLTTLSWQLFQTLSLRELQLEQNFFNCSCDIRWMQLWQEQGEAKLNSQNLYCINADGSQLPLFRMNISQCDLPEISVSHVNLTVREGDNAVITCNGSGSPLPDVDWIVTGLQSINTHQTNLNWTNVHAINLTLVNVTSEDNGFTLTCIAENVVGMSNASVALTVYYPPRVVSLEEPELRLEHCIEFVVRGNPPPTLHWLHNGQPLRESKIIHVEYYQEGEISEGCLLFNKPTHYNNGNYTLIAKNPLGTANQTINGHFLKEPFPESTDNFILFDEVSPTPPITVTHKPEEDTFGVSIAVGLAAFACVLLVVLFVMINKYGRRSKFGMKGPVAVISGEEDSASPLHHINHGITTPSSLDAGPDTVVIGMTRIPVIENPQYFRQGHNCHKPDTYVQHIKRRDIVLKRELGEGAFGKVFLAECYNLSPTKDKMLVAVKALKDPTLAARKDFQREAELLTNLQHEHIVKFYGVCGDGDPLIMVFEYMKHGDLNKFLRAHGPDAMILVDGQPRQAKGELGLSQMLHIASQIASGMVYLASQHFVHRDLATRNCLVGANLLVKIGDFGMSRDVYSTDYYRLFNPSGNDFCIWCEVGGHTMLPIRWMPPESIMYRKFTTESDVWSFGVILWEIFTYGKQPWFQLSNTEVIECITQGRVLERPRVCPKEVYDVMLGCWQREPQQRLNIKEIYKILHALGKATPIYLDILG
structure (smiles),measurement,setting,value
CS(=O)(=O)N1CCCC(NC(=O)[C@H](CCC2CCCCC2)NC(=O)c2ccc(CNc3ncnc4c3nnn4-c3ccccc3)cc2)C1 (some centres undefined) [SR-301],residual activity,[1],100%
same,residual activity,[2],86%
same,residual activity,[3],100%
same,residual activity,[4],100%
same,residual activity,[5],100%
same,residual activity,[6],92%
same,residual activity,[7],100%
same,residual activity,[8],100%
same,residual activity,[9],88%
same,residual activity,[10],100%
same,residual activity,[11],100%
same,residual activity,[12],85%
same,residual activity,[13],76%
same,IC50,[14],1.63 µM (not active)
same,residual activity,[15],85%
same,residual activity,[16],95%
CS(=O)(=O)N1CCCC(NC(=O)[C@H](CCC2CCCCC2)NC(=O)c2ccc(CNC(=O)c3cnc4ccccn34)cc2)C1 (some centres undefined) [SR-302],inhibition,[17],45.3%
same,residual activity,[1],100%
same,residual activity,[2],88%
same,residual activity,[3],83%
same,residual activity,[4],100%
same,inhibition,[18],23.5%
same,inhibition,[19],10.9%
same,inhibition,[20],3.78%
same,IC50,[21],> 25 µM
same,inhibition,[22],-2.24%
same,inhibition,[23],18.2%
same,inhibition,[24],34.9%
same,inhibition,[25],11.5%
same,residual activity,[5],100%
same,inhibition,[26],18.5%
same,inhibition,[27],20.1%
same,inhibition,[28],19.8%
same,IC50,[29],> 25 µM
same,residual activity,[6],88%
same,residual activity,[7],100%
same,residual activity,[8],88%
same,residual activity,[9],75%
same,inhibition,[30],18.9%
same,inhibition,[31],31.9%
same,inhibition,[32],6.47%
same,inhibition,[33],3.62%
same,residual activity,[10],88%
same,inhibition,[34],12.2%
same,inhibition,[35],13.5%
same,residual activity,[11],100%
same,inhibition,[36],-8.61%
same,inhibition,[37],3.83%
same,residual activity,[12],100%
same,residual activity,[13],81%
same,inhibition,[38],8.18%
same,inhibition,[39],20.6%
same,inhibition,[40],11.3%
same,inhibition,[41],0.32%
same,inhibition,[42],20.3%
same,inhibition,[43],7.14%
same,inhibition,[44],28.4%
same,IC50,[45],> 25 µM
same,residual activity,[15],96%
